Assays:
[1] = test system: common carotid artery intima-media thickness in asymptomatic subjects with a carotid plaque; test: Carotid ultrasound, change in mean intima-media thickness (IMTmean) in the common carotid artery, 36 months double-blind placebo-controlled trial; assay type: in vivo, human; conditions: for Common carotid IMTmean, Δ 18 months to baseline (± SD) / Common carotid IMTmean, Δ 36 months to baseline (± SD): mean change; for Common carotid IMTmean, 18 months (± SD): mean value at 18 months follow-up, metoprolol 25 mg o.d. / fluvastatin 40 mg o.d., factorial groups; for Common carotid IMTmean, 36 months (± SD): mean value at 36 months follow-up; for Common carotid IMTmean, Δ between groups at 36 months (95% CI): versus placebo
From the text: (§1) The study population consisted of asymptomatic men and women, aged 49 to 70 years, with a plaque in the right carotid artery. A random 50% of those who entered the study were invited to take part in a study on the epidemiology of carotid artery disease. 1548 subjects came to the enrolment examination (visit one) including medical history, physical examination, laboratory measurements and a two-dimensional B-mode ultrasound of the right carotid artery. Subjects with a qualifying lesion in the right carotid artery, and who had no contraindications to the study protocol were invited to take part. In all, 793 subjects were eligible for randomization. All participants provided written informed consent Major exclusion criteria were history of myocardial infarction, angina pectoris or stroke within the preceding three months, history of surgical intervention in the right carotid artery, regular use of beta-blockers or stating, blood pressure above 160 systolic or 95 mm Hg diastolic, hypercholesterolemia (>8.0 mmol/L), hyperglycemia requiring or suspected to require insulin treatment, and conditions which in the opinion of the investigator rendered the subject unsuitable for the trial. […] Death and incidence of major cardiovascular endpoints were monitored. […] Throughout the trial an Acuson 128 […] (Acuson, Mountain View, Calif.) with a 7 MHz transducer was used. The examination procedure and image analysis, as described elsewhere ([…] et al., Clin Physiol, 11:565-577, 1991; […] et al., Stroke, 28:2195-2200, 1997) was performed by specially trained sonographers certified upon completion of an extensive educational program (Berglund, et al., J Intern Med, 236:581-586, 1994). In brief, the right carotid bifurcation was scanned within a pre-defined window comprising three centimeters of the distal common carotid artery, the bifurcation and one centimeter of the internal and external carotid arteries, respectively, for the presence of plaques, defined as focal intima-media thickenings above 1.2 mm. Thickness of the intima-media complex was measured in the far wall according to the leading edge principle, using a specially designed computer-assisted image analyzing system based on automated detection of the echo structures, but with the option to make manual corrections by the operator. Each image was analyzed without knowledge of the subjects' randomization group. From previous experience (Furberg et al., Circulation, 90:1679-1687, 1994) it was anticipated that the annual carotid artery […] progression rate in the placebo group would be approximately 15 μm per year with a standard deviation of 30 μm. […] The primary effect variables, change in […], and […] Bulb, was analyzed in a linear model with change in IMT as dependent variable and with treatment as a factor. Baseline IMTs and time between measurements were included in the model as covariates.

[2] = test system: carotid bulb intima-media thickness in asymptomatic subjects with a carotid plaque; test: Carotid ultrasound, change in maximum intima-media thickness (IMTmax) in the carotid bulb (bifurcation), 36 months double-blind placebo-controlled trial; assay type: in vivo, human; conditions: for Bifurcation carotid IMTmean, Δ 18 months to baseline (± SD) / Bifurcation carotid IMTmean, Δ 36 months to baseline (± SD): mean change; for Bifurcation carotid IMTmean, 18 months (± SD): mean value at 18 months follow-up; for Bifurcation carotid IMTmean, 36 months (± SD): mean value at 36 months follow-up; for Bifurcation carotid IMTmean, Δ between groups at 36 months (95% CI): versus placebo
From the text: as §1

[3] = test system: cardiovascular (CVD) events in asymptomatic subjects with a carotid plaque; test: Incidence of cardiovascular events during follow-up; assay type: in vivo, human; conditions: metoprolol versus 13 cases placebo, p=0.055; fluvastatin versus 11 cases placebo, p=0.350
From the text: Death and incidence of major cardiovascular endpoints were monitored.

[4] = human, in vivo, 36 months
Description: A large scale clinical trial was designed to investigate the effect of low dose betablocker metoprolol on the progression of carotid IMT versus placebo and clinical outcome measures during 36 months double-blind treatment in asymptomatic subjects with a carotid plaque. The study was a randomized, double blind, parallel group, placebo-controlled, single-center study.
The randomization procedure was performed by using a computer generated randomization scheme. Participants were, according to a factorial design, randomly assigned to one of four drug combination groups: placebo/placebo, metoprolol (25 mg o.d)/placebo, fluvastatin (40 mg o.d.)/placebo or metoprolol (25 mg o.d.)/fluvastatin (40 mg o.d.). The placebo was manufactured to exactly resemble the metoprolol CR/XL tablets (AstraZeneca AB, Mölndal, Sweden), and fluvastatin (Novartis Ltd, Basel, Switzerland) capsules, respectively.
Safety and tolerability pattern during treatment with fluvastatin or metoprolol, was evaluated by comparing adverse events and laboratory findings to placebo. Death and incidence of major cardiovascular endpoints were monitored.
Every participant was seen four times during the first year (after one, three, six and twelve months) and every 6 months thereafter. Weight was obtained every six months and a fasting lipid profile (total cholesterol, LDL-lipoprotein, HDL-lipoprotein and triglycerides) was determined every year. Liver transaminases (AST, ALT) and creatine kinase (CK) were obtained at every visit during the first year and then every year thereafter. AST or ALT values ≧3 times, and CK values ≧10 times the upper limit of normal was considered elevated during the study. […] Subjects with high serum cholesterol or triglycerides were advised to a low-fat diet and if evidence of persistent high cholesterol values such subjects were referred to an independent specialist of lipid disorders without knowledge of the subjects randomization assignment. […]

[5] = Metabolic and physiological effects of treatment in the clinical trial; assay type: in vivo, human
Description: A large scale clinical trial was designed to investigate the effect of low dose betablocker metoprolol on the progression of carotid IMT versus placebo and clinical outcome measures during 36 months double-blind treatment in asymptomatic subjects with a carotid plaque. The study was a randomized, double blind, parallel group, placebo-controlled, single-center study. The randomization procedure was performed by using a computer generated randomization scheme. Participants were, according to a factorial design, randomly assigned to one of four drug combination groups: placebo/placebo, metoprolol (25 mg o.d)/placebo, fluvastatin (40 mg o.d.)/placebo or metoprolol (25 mg o.d.)/fluvastatin (40 mg o.d.). The placebo was manufactured to exactly resemble the metoprolol CR/XL tablets (AstraZeneca AB, […] , Sweden), and fluvastatin (Novartis Ltd, Basel, Switzerland) capsules, respectively. Every participant was seen four times during the first year (after one, three, six and twelve months) and every 6 months thereafter. Weight was obtained every six months and a fasting lipid profile (total cholesterol, LDL-lipoprotein, HDL-lipoprotein and triglycerides) was determined every year. Liver transaminases (AST, ALT) and creatine kinase (CK) were obtained at every visit during the first year and then every year thereafter. AST or ALT values ≧3 times, and CK values ≧10 times the upper limit of normal was considered elevated during the study. Carotid ultrasound investigation was performed at baseline and after 18 and 36 months treatment.

[6] = in comparison to the placebo group

| Permanent withdrawal from randomized treatment [4] | Compound | Common carotid IMTmean, Δ 18 months to baseline (± SD) [1] | Common carotid IMTmean, Δ 36 months to baseline (± SD) [1] | Common carotid IMTmean, 18 months (± SD) [1] | Common carotid IMTmean, 36 months (± SD) [1] | Common carotid IMTmean, Δ between groups at 36 months (95% CI) [1] | Bifurcation carotid IMTmean, Δ 18 months to baseline (± SD) [2] | Bifurcation carotid IMTmean, Δ 36 months to baseline (± SD) [2] | Bifurcation carotid IMTmean, 18 months (± SD) [2] | Bifurcation carotid IMTmean, 36 months (± SD) [2] | Bifurcation carotid IMTmean, Δ between groups at 36 months (95% CI) [2] | CVD events during follow-up [3] | also measured |
| --- | --- | --- | --- | --- | --- | --- | --- | --- | --- | --- | --- | --- | --- |
| 21% | CC(C)n1c(/C=C/C(O)CC(O)CC(=O)O)c(-c2ccc(F)cc2)c2ccccc21 (centres unmarked) [Fluvastatin, fluvastatin] | −5 ± 11 μm | 11 ± 11 μm | 890 ± 196 μm | 905 ± 205 μm | −25 (−44 to −7) μm | 63 ± 334 μm | 170 ± 374 μm | 1965 ± 554 μm | 2095 ± 652 μm | −41 (−102 to 19) μm | 7 cases | IMTmean CCA progression, mean difference of yearly change between groups ([1]; compared with placebo after 36 months of treatment, 95% CI −15 to −3, p=0.002): −9 μm; frequency of transiently high liver enzymes ([4]; female): 10.2% |
| 15% | COCCc1ccc(OCC(O)CNC(C)C)cc1 (centres unmarked) [Metoprolol, metoprolol] | −5 ± 12 μm | 22 ± 13 μm | 908 ± 205 μm | 934 ± 220 μm | −2 (−20 to 17) μm | 23 ± 325 μm | 154 ± 411 μm | 1937 ± 572 μm | 2003 ± 624 μm | −73 (−133 to −13) μm | 5 cases | reduced the rate of progression of IMTmean CCA compared with placebo ([1]; after 36 months of treatment, result in words): not; carotid IMTmaxBulb progression, mean difference of yearly change between groups ([2]; after 18 months of treatment, 95% CI −94 to −23, p=0.004): −58 μm; carotid IMTmaxBulb progression, mean difference of yearly change between groups ([2]; after 36 months, subgroup with serum cholesterol at baseline, 95% CI −87 to −19, p=0.001): −53 μm; carotid IMTmaxBulb progression, mean difference of yearly change between groups ([2]; compared with placebo after 36 months of treatment, 95% CI −44 to −3, p=0.014): −23 μm; effect on other metabolic variables ([5]; compared to the placebo group): no effect; change of blood pressure [5, 6]: not significantly changed; change of lumen diameter [5, 6]: not significantly changed; decrease of mean heart rate in comparison to the placebo group ([5]; metoprolol 25 mg o.d.): 2.5 beats per min; increase of serum triglycerides compared to the placebo group ([5]; metoprolol 25 mg o.d.): 0.14 mmol/L |

Source: patent US20060252814A1, “Formulation comprising a betablocker and optionally a cholestrol-lowering agent” (AstraZeneca AB, priority 2000, published 2006)
